This note sets out measurements from ChEMBL document CHEMBL1130829, “Inhibition of human cytomegalovirus protease N(o) with monocyclic beta-lactams” (Bioorg Med Chem Lett, 1998).

Where only a bound is given, the exact number is not on record here.

For experiment [1], the target named is Cathepsin B (Homo sapiens, UniProt P07858). The experiment is described as follows: Inhibitory activity against Cathepsin B.
Experiment [2] has as its target Chymotrypsinogen B (Homo sapiens, UniProt P17538). The experiment in a line: Inhibitory activity against alpha-chymotrypsin.
The target of experiment [3] is T1, Neutrophil elastase (Homo sapiens, UniProt P08246).
T1 sequence (P08246 whole entry): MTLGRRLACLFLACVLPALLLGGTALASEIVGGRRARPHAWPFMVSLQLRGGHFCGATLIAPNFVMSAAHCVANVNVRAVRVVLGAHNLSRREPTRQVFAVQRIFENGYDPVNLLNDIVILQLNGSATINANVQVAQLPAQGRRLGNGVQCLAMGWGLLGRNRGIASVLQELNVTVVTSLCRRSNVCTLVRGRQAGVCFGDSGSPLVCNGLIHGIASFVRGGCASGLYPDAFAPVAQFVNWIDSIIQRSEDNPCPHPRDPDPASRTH
The experiment is described as follows: Inhibitory activity against human leukocyte elastase protease(HLE).

Experiment [4] deals with T2, Capsid scaffolding protein (Human cytomegalovirus (strain AD169) (HHV-5) (Human herpesvirus 5), UniProt P16753).
T2 sequence (P16753 whole entry): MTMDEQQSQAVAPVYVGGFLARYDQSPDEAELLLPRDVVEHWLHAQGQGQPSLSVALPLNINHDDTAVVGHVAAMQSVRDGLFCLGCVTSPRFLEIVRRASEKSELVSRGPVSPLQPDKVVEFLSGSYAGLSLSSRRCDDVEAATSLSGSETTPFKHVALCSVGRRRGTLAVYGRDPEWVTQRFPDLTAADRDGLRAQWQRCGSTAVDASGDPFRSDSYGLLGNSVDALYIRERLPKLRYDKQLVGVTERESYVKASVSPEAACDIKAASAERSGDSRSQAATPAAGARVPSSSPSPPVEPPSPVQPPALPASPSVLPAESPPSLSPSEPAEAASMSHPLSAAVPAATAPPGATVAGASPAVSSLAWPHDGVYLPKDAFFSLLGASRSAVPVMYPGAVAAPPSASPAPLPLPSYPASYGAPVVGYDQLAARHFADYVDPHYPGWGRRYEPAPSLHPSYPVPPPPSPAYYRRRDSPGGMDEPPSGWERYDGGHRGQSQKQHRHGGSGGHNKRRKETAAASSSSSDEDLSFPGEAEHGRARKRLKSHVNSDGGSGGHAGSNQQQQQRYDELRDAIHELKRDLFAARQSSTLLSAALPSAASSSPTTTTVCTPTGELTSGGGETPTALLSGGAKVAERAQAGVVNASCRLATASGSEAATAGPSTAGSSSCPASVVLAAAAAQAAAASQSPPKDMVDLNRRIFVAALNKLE
The experiment is described as follows: Inhibitory activity against human cytomegalovirus (HCMV) protease. More on the design: species or system Human herpesvirus 5 strain AD169.

Sequence of Chymotrypsinogen B (P17538 34-164 limits assumed, other chains not shown): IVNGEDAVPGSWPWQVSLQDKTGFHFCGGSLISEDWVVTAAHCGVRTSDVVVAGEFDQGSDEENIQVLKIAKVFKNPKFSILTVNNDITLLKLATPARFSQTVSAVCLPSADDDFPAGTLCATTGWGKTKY
Sequence of Chymotrypsinogen B (P17538 167-263 limits assumed, other chains not shown): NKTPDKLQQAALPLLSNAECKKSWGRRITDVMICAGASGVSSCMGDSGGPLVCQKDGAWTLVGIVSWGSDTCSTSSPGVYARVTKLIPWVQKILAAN

In the case of `CC(C)C[C@@H](COC1CC(=O)N1C(=O)NCc1ccccc1)NC(=O)[C@@H](NC(=O)OC(C)(C)C)C(C)(C)C` (stereo partly drawn), the IC50 was over 75 µM in experiment [1], 8.3 µM in experiment [2] and over 75 µM in experiment [3].
Take `CC(C)C[C@@H](COC1CC(=O)N1C(=O)N[C@H](C)c1ccccc1)NC(=O)[C@@H](NC(=O)OC(C)(C)C)C(C)(C)C` (stereo partly drawn): the IC50 in experiment [1] is over 75 µM; in experiment [4], 1.4 µM; in experiment [2], over 75 µM; in experiment [3] it was over 75 µM.
Consider `C[C@@H](NC(=O)N1C(=O)CC1SCCc1ccccc1)c1ccccc1` (stereo partly drawn), for which the IC50 in experiment [1], in experiment [2] and in experiment [3] was over 75 µM in each case.
As to `C[C@@H](NC(=O)N1C(=O)CC1SCc1ccccn1)c1ccccc1` (stereo partly drawn), the IC50 in experiment [1], in experiment [2] and in experiment [3] was over 75 µM in each case.
Regarding `C[C@@H](NC(=O)N1C(=O)CC1SCc1ccc(CC(=O)OC(C)(C)C)cc1)c1ccccc1` (stereo partly drawn), the IC50 in experiment [1] is over 75 µM; in experiment [4], 75 µM; in experiment [2], over 75 µM; in experiment [3], over 75 µM.
Regarding `CC(C)C[C@@H](COC1CC(=O)N1C(=O)N[C@@H](C)c1ccccc1)NC(=O)[C@@H](NC(=O)OC(C)(C)C)C(C)(C)C` (stereo partly drawn), the IC50 in experiment [1] was over 75 µM; in experiment [4], 0.3 µM; in experiment [2] it was over 75 µM; in experiment [3], over 75 µM.
With `C[C@@H](NC(=O)N1C(=O)CC1SCc1cccnc1)c1ccccc1` (stereo partly drawn), the IC50 in experiment [1], in experiment [2] and in experiment [3] was over 75 µM each time.
For `C[C@@H](NC(=O)N1C(=O)CC1Sc1ccccc1)c1ccccc1` (stereo partly drawn), the IC50 in experiment [1], in experiment [2] and in experiment [3] was over 75 µM throughout.
For `C[C@@H](NC(=O)N1C(=O)CC1SCc1ccncc1)c1ccccc1` (stereo partly drawn), the 50% inhibitory concentration (IC50) in experiment [1], in experiment [2] and in experiment [3] was over 75 µM throughout.
Take `C[C@@H](NC(=O)N1C(=O)CC1SCc1ccccc1)c1ccccc1` (stereo partly drawn): the IC50 in experiment [1] was over 75 µM; in experiment [4], 2.4 µM; in experiment [2], over 75 µM; in experiment [3] it was over 75 µM.
Take `CC(C)C[C@@H](COC1CC(=O)N1)NC(=O)[C@@H](NC(=O)OC(C)(C)C)C(C)(C)C` (stereo partly drawn): the IC50 in experiment [4] is over 300 µM.
For the compound `CC[C@@H](NC(=O)N1C(=O)[C@@H](C)[C@@H]1SCc1ccccn1)c1ccccc1`, the IC50 in experiment [1] was over 75 µM; in experiment [2], 1.7 µM; in experiment [3], under 0.15 µM.
Take `CC[C@H](NC(=O)N1C(=O)CC1SC[C@H](CC(C)C)NC(=O)[C@@H](NC(=O)CC(C)(C)C)C(C)(C)C)c1ccccc1` (stereo partly drawn): the IC50 in experiment [1] was over 75 µM; in experiment [4] it was 0.07 µM; in experiment [2] it was over 75 µM; in experiment [3] it was over 75 µM.
On to `CC(C)C[C@@H](CSC1CC(=O)N1C(=O)NCc1ccccc1)NC(=O)[C@@H](NC(=O)OC(C)(C)C)C(C)(C)C` (stereo partly drawn), for which the figures for the IC50 in experiment [1], in experiment [2] and in experiment [3] were over 75 µM, 0.8 µM and over 75 µM, respectively.
As to `CC[C@@H](NC(=O)N1C(=O)CC1SCc1ccccn1)c1ccccc1` (stereo partly drawn), the IC50 in experiment [1], in experiment [2] and in experiment [3] was over 75 µM in each case.
Regarding `O=C1CC(SCc2ccccn2)N1C(=O)NCCOCc1ccccc1` (stereo not drawn), the IC50 is over 75 µM in experiment [1], 6.4 µM in experiment [4], over 75 µM in experiment [2] and over 75 µM in experiment [3].
For `O=C1CC(SCc2ccccn2)N1C(=O)N[C@H](CO)c1ccccc1` (stereo partly drawn), the IC50 in experiment [1], in experiment [2] and in experiment [3] was over 75 µM each time.
Take `C[C@@H](NC(=O)N1C(=O)CC1SCC(=O)c1ccccc1)c1ccccc1` (stereo partly drawn): the IC50 in experiment [1], in experiment [2] and in experiment [3] was over 75 µM each time.

The term IC50 denotes the concentration needed to halve the response being measured. Lower therefore signals inhibition by little substance.
